Ends that are not written are not given here.
Legend:
pulmonary emboli [1] = details: literature, in words; cited from earlier work
thrombi = details: literature, in words; cited from earlier work
pulmonary emboli [2] = assay: Comparison of short Arg-Gly-Asp peptides to disintegrins in dog, pulmonary emboli (Example 7); assay type: in vivo; details: PE; 4 hrs
Description: In this example of thrombi and emboli in a dog, the radioactivity target:background ratios were determined qualitatively by imaging and quantitatively by tissue sampling. Higher ratios are due to the increased target specificity of the radiolabel carrier. Significant measurements presented in this study are the relative ratio of counts from the target tissue (thrombus and pulmonary emboli) to background entities (muscle, vessels blood etc.). […] Thrombus uptake data, such as the percent injected radiolabel dose per gram of thrombus (% id/g thrombus), thrombus-to-blood (=100×% id/g thrombus.div.%id/g blood) and thrombus-to-muscle ratios (=100×%id/g thrombus.div.%id/g muscle) were calculated from the tissue sample count data discussed below.
To create a model of pulmonary embolus, an incision was made in the corresponding location on the left leg of the dog. […] The catheter and guide wire were withdrawn. The incision was closed with 2-0 silk.
Twenty-four hours after placement of the coils, anesthesia was induced as before. The urinary bladder was catheterized to collect urine. A large field of view gamma camera (General Electric, Milwaukee, Wis.) was positioned over the dog for an anterior view of the chest. The camera was fitted with a low-energy all-purpose collimator and was set to acquire the 159 keV photopeak of ^123 I with a 20% window. A Macintosh IIx computer was interfaced to the camera using a NucLear Mac A/D board and software (Scientific Imaging, Denver, Colo.). […] The ^125 -fibrinogen served as a control, since it has been studied previously in this dog model.
[…] A blood sample was drawn and 0.3 cc was transferred into each of two pre-weighed tubes. The animal was euthanized with intracardiac injection of KCl saturated solution. The vein segment containing the thrombus was carefully removed and dissected to separate the thrombus, coil, Dacron fibers and vessel wall. Each of these samples was placed on tared paper and weighed (wet weight). Similar size samples of control vessel (femoral vein from the control side) and skeletal muscle (from the thigh) were also collected and weighed. The "abnormal vessel" was the sample of vein from which the thrombus was dissected. The "control vessel" was the identical control vessel from the opposite leg. The control vessel Was not injured and therefore should not have significant uptake of radiotracer. Each sample was then placed in a counting tube and counted along with a saved aliquot of the injected dose as a standard, in a well counter. After counting, samples were held for decay of ^123 I and recounted in a lower energy window to collect the counts from ^125 I.
The imaging ability of the small peptides was compared to that of the ^123 I-labelled disintegrins in the Example 6 dog model. […]

femoral clot = assay: Comparison of short Arg-Gly-Asp peptides to disintegrins in dog, femoral clot (Example 7); assay type: in vivo; details: T:B at least 4:1 in extremities, 9:1 in chest
Description: In this example of thrombi and emboli in a dog, the radioactivity target:background ratios were determined qualitatively by imaging and quantitatively by tissue sampling. […] Significant measurements presented in this study are the relative ratio of counts from the target tissue (thrombus and pulmonary emboli) to background entities (muscle, vessels blood etc.). […] Thrombus uptake data, such as the percent injected radiolabel dose per gram of thrombus (% id/g thrombus), thrombus-to-blood (=100×% id/g thrombus.div.%id/g blood) and thrombus-to-muscle ratios (=100×%id/g thrombus.div.%id/g muscle) were calculated from the tissue sample count data discussed below.
A female mongrel dog weighing 40 lbs was fasted overnight. The dog was sedated with an intramuscular injection of a mixture of ketamine hydrochloride and acepromazine maleate. General anesthesia was induced with intravenous pentobarbital (20 mg/kg). After shaving and washing the dog's skin, a 3-cm incision was made in the right groin area. Using blunt dissection, a segment of the femoral vein was located and freed from surrounding tissue for a length of 1 inch. […]
At 2 hours and 45 min. post injection, deep anesthesia was induced by intravenous administration of 30 mg/kg pentobarbital. […] Each sample was then placed in a counting tube and counted along with a saved aliquot of the injected dose as a standard, in a well counter. […]

Substance: Fibronectin
- ability to image pulmonary emboli (pulmonary emboli [1]): not been useful for imaging pulmonary emboli

Substance: Heparin [reference compound]
- ability to image or detect thrombi (thrombi): not been found successful as an agent for imaging thrombi

Substance: ^123 I-eristostatin: eristostatin, disintegrin from Eristocophis macmahoni, radioiodinated with ^123 I (QEEPCATGPCCRRCKFKRAGKVCRVARGDWNDDYCTGKSCDCPRNPWN; cysteine pairing not given here; also: radioiodinated with 123I, place not given here)
- AV:CV abnormal (injured) vessel:control vessel label ratio (pulmonary emboli [2]): 1.2
- Percent Injected Dose Per Gram of Thrombus (pulmonary emboli [2]): 0.1205 % id/g
- T:B thrombus:blood ratio (pulmonary emboli [2]): 8.6
- T:M thrombus:muscle ratio (pulmonary emboli [2]): 40.6
- target:background ratios versus medically acceptable range for imaging (femoral clot): medically significant background ratios for imaging of thrombi

Substance: streptokinase
- ability to image or detect thrombi (thrombi): only with marginal success

Substance: urokinase
- ability to image or detect thrombi (thrombi): only with marginal success
